Experimental data from patent US12202805B2, “Process for preparing (5S)-{[2-(4-carboxyphenyl)ethyl] |2-(2-{|3-chloro-4'-(trifluoromethyl)biphenyl-4-yl]methoxy}phenyl)ethyl]aminol-5,6,7,8-tetrahydroquinoline-2-carboxylic acid and its crystalline forms for use as pharmaceutically active compound” (Bayer Aktiengesellschaft, priority 2021, dated 2025).
Where two headings read alike, the source gives them in different places.

Assay: E-2.3 inhalative, oral and intravenous single doses in healthy male subjects: plasma concentrations and lung deposition
Assay type: in vivo, human
Details: for concentration at 0 h: 0 h after dose, heading: Geometric mean of plasma concentrations; for concentration at 0.25 h: 0.25 h after dose; for concentration at 0.5 h: 0.5 h after dose; for concentration at 0.75 h: 0.75 h after dose; for concentration at 1 h: 1 h after dose; for concentration at 1.5 h: 1.5 h after dose; for concentration at 2 h: 2 h after dose; for concentration at 2.5 h: 2.5 h after dose; for concentration at 3 h: 3 h after dose; for concentration at 4 h: 4 h after dose; for concentration at 6 h: 6 h after dose; for concentration at 8 h: 8 h after dose; for concentration at 12 h: 12 h after dose; for concentration at 15 h: 15 h after dose; for concentration at 24 h: 24 h after dose; for concentration at 28 h: 28 h after dose; for concentration at 32 h: 32 h after dose; for concentration at 36 h: 36 h after dose
Protocol: E-2.3 Inhalative, Oral and Intravenous Administration of Single Doses of sGC an Activator in Healthy Male Subjects—Lung Deposition
Healthy white male subjects, aged 18 to 45 years with a body mass index (BMI) above/equal 18.5 and below/equal 29.9 kg/m^2 were treated in a clinical phase I study with a single inhaled dose of 1000 μg (nominal dose), a single inhaled dose of 1000 μg (nominal dose)+charcoal block, a single oral dose of 1000 μg and a single infusion over 2 h of 100 μg of example 4. As the bioavailability of an intravenous application is generally 100% per definition and therefore higher than in case of an oral or […], the intravenous dose was carefully selected to be lower than the oral and inhaled dose to avoid higher plasma concentration resulting from a high IV dose and potential side effect, e.g. reduction in blood pressure or syncope. Therefore, 100 μg was selected for the IV dose in this investigation. Seven days washout period between treatments was applied. The subjects swallowed a solution for oral administration (20 ml comprising 1000 μg, see under C-2, table 26). The subjects received a solution as a single infusion over 2 hours (2 ml comprising 100 μg, see under C-2 table 26). The subjects inhaled the drug powder from capsules (see under C-1, tables 17 and 20) inserted into a handheld inhalation device by one deep inhalative breath. After inhalation of the dry powder formulation of this drug, some parts of the nominal dose remain in the capsule and the device, the dose which reaches the body at the mouthpiece is called the emitted dose. The emitted dose can be calculated/determined as followed: nominal dose−(remains in the capsule+remains in the device). After inhalation of the dry powder, one part of the emitted dose enters the gastrointestinal tract (GIT) and is called the oral part of the emitted dose, the other part of the emitted dose which reaches the lung through the respiratory airways is called the lung dose and represents the lung deposited dose. As the lung is the target organ of the effect, the lung deposited dose must be quantified. Lung deposition can be indirectly estimated, by determining the part of the nominal dose which reaches the GIT and the remains in the capsule and the device. To investigate and determine lung deposition, the following investigations were done (see also FIG. 59): • 1—Inhaled application of a single dose of 1000 μg of the dry powder. • 2—Inhaled application of a single dose of 1000 μg of the dry powder in combination with oral administration of charcoal block. The charcoal block capped the oral absorption of GIT part of the dose, as example 4 completely adsorbed to charcoal block. This implies that the concentrations of example 4 measured reach the systemic circulation via the lung. • 3—Administration of a single oral dose of […] example 4 to determine the oral absorption. • 4—Administration of a 2 h infusion of example 4 to investigate the elimination.

[1] = male, human, plasma, inhaled, 1000 μg, healthy male subjects, single 1000 μg inhale + Charcoal Block, N = 16, read-out: Geometric mean of plasma concentrations
[2] = male, human, plasma, inhaled, 1000 μg, healthy male subjects, single 1000 μg inhale, N = 16, read-out: Geometric mean of plasma concentrations
[3] = male, human, plasma, iv, 100 μg, healthy male subjects, 100 μg IV infusion over 2 h, N = 15, read-out: Geometric mean of plasma concentrations
[4] = male, human, plasma, po, 1000 μg, healthy male subjects, single 1000 μg oral, N = 16, read-out: Geometric mean of plasma concentrations

Q: What does the source list for O=C(O)c1ccc(CCN(CCc2ccccc2OCc2ccc(-c3ccc(C(F)(F)F)cc3)cc2Cl)[C@H]2CCCc3nc(C(=O)O)ccc32)cc1 [example 4, (5S)—{[2-(4-Carboxyphenyl)ethyl][2-(2-{[3-chloro-4′-(trifluoromethyl)biphenyl-4-yl]methoxy}phenyl)-ethyl]amino}-5,6,7,8-tetrahydroquinoline-2-carboxylic acid as Monohydrate I]?
A: emitted dose (after inhalation of 1000 μg in humans): 720 µg; oral part of the dose (inhaled 1000 μg): approximately 13 % of the nominal dose; lung dose (part of nominal dose that reached the lung) (inhaled dry powder): 16.3 % of the nominal dose; total part of the dry powder reaching the body (inhaled dry powder): 18.8 % of the nominal dose; concentration at 0 h (male, human, plasma, inhaled, 1000 μg, healthy male subjects, single 1000 μg inhale + Charcoal Block, N = 16): < 0.05 ng/mL; concentration at 0.25 h [1]: 0.0583 ng/mL; concentration at 0.5 h [1]: 0.261 ng/mL; concentration at 0.75 h [1]: 0.491 ng/mL; concentration at 1 h [1]: 0.662 ng/mL; concentration at 1.5 h [1]: 0.9 ng/mL; concentration at 2 h [1]: 0.969 ng/mL; concentration at 2.5 h [1]: 1.02 ng/mL; concentration at 3 h [1]: 0.933 ng/mL; concentration at 4 h [1]: 0.812 ng/mL; concentration at 6 h [1]: 0.508 ng/mL; concentration at 8 h [1]: 0.373 ng/mL; concentration at 12 h [1]: 0.22 ng/mL; concentration at 15 h [1]: 0.157 ng/mL; concentration at 24 h [1]: 0.0931 ng/mL; concentration at 28 h [1]: 0.0761 ng/mL; concentration at 32 h [1]: 0.0696 ng/mL; concentration at 36 h [1]: 0.054 ng/mL; concentration at 0 h (male, human, plasma, inhaled, 1000 μg, healthy male subjects, single 1000 μg inhale, N = 16): < 0.05 ng/mL; concentration at 0.25 h [2]: 0.0628 ng/mL; concentration at 0.5 h [2]: 0.316 ng/mL; concentration at 0.75 h [2]: 0.622 ng/mL; concentration at 1 h [2]: 0.869 ng/mL; concentration at 1.5 h [2]: 1.16 ng/mL; concentration at 2 h [2]: 1.2 ng/mL; concentration at 2.5 h [2]: 1.18 ng/mL; concentration at 3 h [2]: 1.07 ng/mL; concentration at 4 h [2]: 0.927 ng/mL; concentration at 6 h [2]: 0.583 ng/mL; concentration at 8 h [2]: 0.415 ng/mL; concentration at 12 h [2]: 0.25 ng/mL; concentration at 15 h [2]: 0.181 ng/mL; concentration at 24 h [2]: 0.106 ng/mL; concentration at 28 h [2]: 0.0793 ng/mL; concentration at 32 h [2]: 0.0698 ng/mL; concentration at 36 h [2]: 0.058 ng/mL; concentration at 0 h (male, human, plasma, iv, 100 μg, healthy male subjects, 100 μg IV infusion over 2 h, N = 15): < 0.05 ng/mL; concentration at 0.25 h [3]: 1.76 ng/mL; concentration at 0.5 h [3]: 2.52 ng/mL; concentration at 0.75 h [3]: 2.68 ng/mL; concentration at 1 h [3]: 2.99 ng/mL; concentration at 1.5 h [3]: 3.15 ng/mL; concentration at 2 h [3]: 3.07 ng/mL; concentration at 2.083 h (male, human, plasma, iv, 100 μg, healthy male subjects, 100 μg IV infusion over 2 h, N = 15, 2.083 h after dose, read-out: Geometric mean of plasma concentrations): 2.57 ng/mL; concentration at 2.25 h (male, human, plasma, iv, 100 μg, healthy male subjects, 100 μg IV infusion over 2 h, N = 15, 2.25 h after dose, read-out: Geometric mean of plasma concentrations): 1.42 ng/mL; concentration at 2.5 h [3]: 0.559 ng/mL; concentration at 2.75 h (male, human, plasma, iv, 100 μg, healthy male subjects, 100 μg IV infusion over 2 h, N = 15, 2.75 h after dose, read-out: Geometric mean of plasma concentrations): 0.264 ng/mL; concentration at 3 h [3]: 0.132 ng/mL; concentration at 0 h (male, human, plasma, po, 1000 μg, healthy male subjects, single 1000 μg oral, N = 16): < 0.05 ng/mL; concentration at 0.25 h [4]: 0.777 ng/mL; concentration at 0.5 h [4]: 3.64 ng/mL; concentration at 0.75 h [4]: 5.28 ng/mL; concentration at 1 h [4]: 5.68 ng/mL; concentration at 1.5 h [4]: 4.69 ng/mL; concentration at 2 h [4]: 3.32 ng/mL; concentration at 2.5 h [4]: 2.26 ng/mL; concentration at 3 h [4]: 1.6 ng/mL; concentration at 4 h [4]: 1.01 ng/mL; concentration at 6 h [4]: 0.424 ng/mL; concentration at 8 h [4]: 0.233 ng/mL; concentration at 12 h [4]: 0.126 ng/mL; concentration at 15 h [4]: 0.0714 ng/mL
